According to US20220119354A1, “DIAMINO-SUBSTITUTED PYRIDINES AND PYRIMIDINES AS HERBICIDES” (FMC Corporation, priority 2019, published 2022):

Assays:
Assay type in all cases: in vivo
[1] = tested on: barnyardgrass (Echinochloa crus-galli); assay: Test A preemergence, barnyardgrass; conditions: 0 to 100 scale, 0 is no effect, 100 is complete control
Source text: (§1) Seeds of plant species selected from barnyardgrass (Echinochloa crus-galli), kochia (Kochia scoparia), ragweed (common ragweed, Ambrosia elatior), ryegrass, Italian (Lolium multiflorum), foxtail, giant (Setaria faberii), foxtail, green (Setaria viridis), and pigweed (Amaranthus retroflexus) were planted into a blend of loam soil and sand and treated preemergence with a directed soil spray using test chemicals formulated in a non-phytotoxic solvent mixture which included a surfactant.
(§2) At the same time, plants selected from these weed species and also wheat (Triticum aestivum), corn (Zea mays), blackgrass (Alopecurus myosuroides), and galium (catchweed bedstraw, Galium aparine) were planted in pots containing the same blend of loam soil and sand and treated with postemergence applications of test chemicals formulated in the same manner. Plants ranged in height from 2 to 10 cm and were in the one- to two-leaf stage for the postemergence treatment. Treated plants and untreated controls were maintained in a greenhouse for approximately 10 d, after which time all treated plants were compared to untreated controls and visually evaluated for injury. Plant response ratings, summarized in Table A, are based on a 0 to 100 scale where 0 is no effect and 100 is complete control. A dash (-) response means no test result.

kochia (Kochia scoparia) [2] = assay: Test A preemergence, kochia; conditions: 0 to 100 scale, 0 is no effect, 100 is complete control
Source text: as §1, §2

[3] = tested on: ragweed (common ragweed, Ambrosia elatior); assay: Test A preemergence, ragweed; conditions: 0 to 100 scale, 0 is no effect, 100 is complete control
Source text: as §1, §2

[4] = tested on: ryegrass, Italian (Lolium multiflorum); assay: Test A preemergence, Italian ryegrass; conditions: 0 to 100 scale, 0 is no effect, 100 is complete control
Source text: as §1, §2

[5] = tested on: foxtail, giant (Setaria faberii); assay: Test A preemergence, giant foxtail; conditions: 0 to 100 scale, 0 is no effect, 100 is complete control
Source text: as §1, §2

[6] = tested on: pigweed (Amaranthus retroflexus); assay: Test A preemergence, pigweed; conditions: 0 to 100 scale, 0 is no effect, 100 is complete control
Source text: as §1, §2

[7] = tested on: barnyardgrass (Echinochloa crus-galli); assay: Test A postemergence, barnyardgrass; conditions: 0 to 100 scale
Source text: as §1, §2

kochia (Kochia scoparia) [8] = assay: Test A postemergence, kochia; conditions: 0 to 100 scale
Source text: as §1, §2

[9] = tested on: ragweed (common ragweed, Ambrosia elatior); assay: Test A postemergence, ragweed; conditions: 0 to 100 scale
Source text: as §1, §2

[10] = tested on: ryegrass, Italian (Lolium multiflorum); assay: Test A postemergence, Italian ryegrass; conditions: 0 to 100 scale
Source text: as §1, §2

[11] = tested on: foxtail, giant (Setaria faberii); assay: Test A postemergence, giant foxtail; conditions: 0 to 100 scale
Source text: as §1, §2

[12] = tested on: pigweed (Amaranthus retroflexus); assay: Test A postemergence, pigweed; conditions: 0 to 100 scale
Source text: as §1, §2

[13] = tested on: wheat (Triticum aestivum); assay: Test A postemergence, wheat; conditions: 0 to 100 scale
Source text: as §1, §2

[14] = tested on: blackgrass (Alopecurus myosuroides); assay: Test A postemergence, blackgrass; conditions: 0 to 100 scale
Source text: as §1, §2

[15] = tested on: galium (catchweed bedstraw, Galium aparine); assay: Test A postemergence, galium; conditions: 0 to 100 scale
Source text: as §1, §2

rice (Oryza sativa) = assay: Test B flooded paddy test, rice; conditions: Oryza sativa, 360 h; Flood, 250 g ai/ha, applied to paddy water, 2-leaf stage, visual evaluation after 13 to 15 d; read-out: Plant response rating, Rice (0 to 100 scale, 0 is no effect, 100 is complete control)
Description: (§3) Plant species in the flooded paddy test selected from rice (Oryza sativa), sedge, umbrella (small-flower umbrella sedge, Cyperus difformis), ducksalad (Heteranthera limosa), and barnyardgrass (Echinochloa crus-galli) were grown to the 2-leaf stage for testing. At the time of treatment, test pots were flooded to 3 cm above the soil surface, treated by application of test compounds directly to the paddy water, and then maintained at that water depth for the duration of the test. Treated plants and controls were maintained in a greenhouse for 13 to 15 d, after which time all species were compared to controls and visually evaluated. Plant response ratings, summarized in Table B, are based on a scale of 0 to 100 where 0 is no effect and 100 is complete control. A dash (-) response means no test result.

[16] = tested on: sedge, umbrella (small-flower umbrella sedge, Cyperus difformis); assay: Test B flooded paddy test, umbrella sedge; conditions: Cyperus difformis, 360 h; Flood, 250 g ai/ha, applied to paddy water, 2-leaf stage, visual evaluation after 13 to 15 d; read-out: Plant response rating, Sedge, Umbrella (0 to 100 scale, 0 is no effect, 100 is complete control)
Description: as §3

[17] = tested on: ducksalad (Heteranthera limosa); assay: Test B flooded paddy test, ducksalad; conditions: Heteranthera limosa, 360 h; Flood, 250 g ai/ha, applied to paddy water, 2-leaf stage, visual evaluation after 13 to 15 d; read-out: Plant response rating, Ducksalad (0 to 100 scale, 0 is no effect, 100 is complete control)
Description: as §3

[18] = tested on: barnyardgrass (Echinochloa crus-galli); assay: Test B flooded paddy test, barnyardgrass; conditions: Echinochloa crus-galli, 360 h; Flood, 250 g ai/ha, applied to paddy water, 2-leaf stage, visual evaluation after 13 to 15 d; read-out: Plant response rating, Barnyardgrass (0 to 100 scale, 0 is no effect, 100 is complete control)
Description: as §3

[19] = 500 g ai/ha, 0 is no effect, 100 is complete control

C[C@@H](Nc1ncc(C(F)(F)F)c(N)n1)c1coc2ccccc12 [Compound 52, N2-[(1R)-1-(3-benzofuranyl)ethyl]-5-(trifluoromethyl)-2,4-pyrimidinediamine]
Barnyardgrass plant response rating ([1]; 125 g ai/ha): 70
Barnyardgrass plant response rating ([1]; 500 g ai/ha): 100
Kochia plant response rating (kochia (Kochia scoparia) [2]; 125 g ai/ha): 90
Kochia plant response rating (kochia (Kochia scoparia) [2]; 500 g ai/ha): 100
Ragweed plant response rating ([3]; 125 g ai/ha): 100
Ragweed plant response rating ([3]; 500 g ai/ha): 100
Ryegrass, Italian plant response rating ([4]; 125 g ai/ha): 80
Ryegrass, Italian plant response rating ([4]; 500 g ai/ha): 90
Foxtail, Giant plant response rating ([5]; 125 g ai/ha): 90
Foxtail, Giant plant response rating ([5]; 500 g ai/ha): 100
Pigweed plant response rating ([6]; 125 g ai/ha): 100
Pigweed plant response rating ([6]; 500 g ai/ha): 100
Barnyardgrass plant response rating [7, 19]: 90
pest or weed control at 125 g/ha ([7]; Echinochloa crus-galli, post-emergence, 240 h, 125 g ai/ha, 0 no effect, 100 complete control, read-out: Plant response rating, Barnyardgrass): 30%
Kochia plant response rating (kochia (Kochia scoparia) [8]; [19]): 90
pest or weed control at 125 g/ha (kochia (Kochia scoparia) [8]; Bassia scoparia, post-emergence, 240 h, 125 g ai/ha, 0 no effect, 100 complete control, read-out: Plant response rating, Kochia): 90%
Ragweed plant response rating [9, 19]: 100
pest or weed control at 125 g/ha ([9]; Ambrosia artemisiifolia, post-emergence, 240 h, 125 g ai/ha, 0 no effect, 100 complete control, read-out: Plant response rating, Ragweed): 80%
Ryegrass, Italian plant response rating [10, 19]: 100
pest or weed control at 125 g/ha ([10]; Lolium multiflorum, post-emergence, 240 h, 125 g ai/ha, 0 no effect, 100 complete control, read-out: Plant response rating, Ryegrass, Italian): 60%
Foxtail, Giant plant response rating [11, 19]: 90
pest or weed control at 125 g/ha ([11]; Setaria faberi, post-emergence, 240 h, 125 g ai/ha, 0 no effect, 100 complete control, read-out: Plant response rating, Foxtail, Giant): 40%
Pigweed plant response rating [12, 19]: 100
pest or weed control at 125 g/ha ([12]; Amaranthus retroflexus, post-emergence, 240 h, 125 g ai/ha, 0 no effect, 100 complete control, read-out: Plant response rating, Pigweed): 100%
Wheat plant response rating [13, 19]: 30
plant injury at 125 g/ha ([13]; Triticum aestivum, post-emergence, 240 h, 125 g ai/ha, 0 no effect, 100 complete control, read-out: Plant response rating, Wheat): 0%
Blackgrass plant response rating [14, 19]: 90
pest or weed control at 125 g/ha ([14]; Alopecurus myosuroides, post-emergence, 240 h, 125 g ai/ha, 0 no effect, 100 complete control, read-out: Plant response rating, Blackgrass): 50%
Galium plant response rating [15, 19]: 90
pest or weed control at 125 g/ha ([15]; Galium, post-emergence, 240 h, 125 g ai/ha, 0 no effect, 100 complete control, read-out: Plant response rating, Galium): 80%
plant injury at 250 g/ha (rice (Oryza sativa)): 10%
pest or weed control at 250 g/ha [16]: 95%
pest or weed control at 250 g/ha [17]: 100%
pest or weed control at 250 g/ha [18]: 90%
